For orientation: KD means the free concentration of one partner at which half of the binding sites on the other are occupied at equilibrium, for simple one-to-one binding. Lower therefore signals tighter binding.

This is an account of results in PMC9049938 (2020).

Common to all, as to assay: BLI
In experiment [1] the test system is N50 (DNA, aptamer) GAGGCAGCACTTCACACGATCGTCCCTGCCCCTGCCTCCTTTCTATGCTGCGTAATGACTGTAGTGATG
The note with it: 150 mM NaCl, 2 mM MgCl2; 50 mM Tris-HCl pH 7.5.

Experiment [2] deals with N59a (DNA, aptamer) CCACCAGGCCAAACACGACCCCAAACA
The note with it: 150 mM NaCl, 2 mM MgCl2, 50 mM Tris-HCl pH 7.5.

Experiment [3] relates to N16 (DNA, aptamer) GAGGCAGCACTTCACACGATATTTGGGGATCAGCCAGGTCAGTGCCACTGCGTAATGACTGTAGTGATG
Particulars: 150 mM NaCl, 2 mM MgCl2; 50 mM Tris-HCl pH 7.5.

Experiment [4] concerns N11 (DNA, aptamer) GAGGCAGCACTTCACACGATCGGACCCAAACTTTACCTTACCCCCATCTGCGTAATGACTGTAGTGATG
The note with it: 150 mM NaCl, 2 mM MgCl2; 50 mM Tris-HCl pH 7.5.

Experiment [5] deals with N41 (DNA, aptamer) GAGGCAGCACTTCACACGATCCCCCCCACACTCTTCCAACCCCCTCTCTGCGTAATGACTGTAGTGATG
Particulars: 150 mM NaCl, 2 mM MgCl2; 50 mM Tris-HCl pH 7.5.

For experiment [6], the system named is N59 (DNA, aptamer) GAGGCAGCACTTCACACGATCCACCAGGCCAAACACGACCCCAAACACTGCGTAATGACTGTAGTGATG
The note with it: 150 mM NaCl, 2 mM MgCl2; 50 mM Tris-HCl pH 7.5.

As to `C=C1[C@@H](O)[C@@H]2O[C@]3(CC[C@H](/C=C/[C@@H](C)[C@@H]4CC(C)=C[C@@]5(O[C@H](C[C@@](C)(O)C(=O)O)CC[C@H]5O)O4)O3)CC[C@H]2O[C@@H]1[C@@H](O)C[C@H](C)[C@H]1O[C@@]2(CC[C@H]1C)OCCC[C@H]2C`, the KD in experiment [1] amounted to 2.57 µM; in experiment [2] (Table S3 prints 64 nM), 0.064 µM; in experiment [3], 0.729 µM; in experiment [4], 0.498 µM; in experiment [5] it was 1890 µM; in experiment [6], 0.17 µM.
In experiment [2], `C=C1[C@@H](O)[C@@H]2O[C@]3(CC[C@H](/C=C/[C@@H](C)[C@@H]4CC(C)=C[C@@]5(O[C@H](C[C@@](C)(O)C(=O)O)CC[C@H]5O)O4)O3)CC[C@H]2O[C@@H]1[C@@H](O)C[C@H](C)[C@H]1O[C@@]2(CCCCO2)CC[C@H]1C` returned a KD of 30.5 µM. In other words, the double-digit micromolar range.
